Experimental data taken from patent US8735406B2, “8-oxodihydropurine derivative” (Dainippon Sumitomo Pharma Co., Ltd., priority 2009, dated 2014).
pIC50: −log10 of the molar value. Structures can show the parent of a compound that is named as a salt. Where two headings read alike, the source gives them in different places.

Target: T1, FAAH (Rattus norvegicus, UniProt P97612)
T1 construct: Preparation of Rat Brain Membranes Preparations (FAAH Enzyme Solution); from tissue; host or cells: rat cerebrum (brain membrane preparation)
T1 sequence (P97612 1-579): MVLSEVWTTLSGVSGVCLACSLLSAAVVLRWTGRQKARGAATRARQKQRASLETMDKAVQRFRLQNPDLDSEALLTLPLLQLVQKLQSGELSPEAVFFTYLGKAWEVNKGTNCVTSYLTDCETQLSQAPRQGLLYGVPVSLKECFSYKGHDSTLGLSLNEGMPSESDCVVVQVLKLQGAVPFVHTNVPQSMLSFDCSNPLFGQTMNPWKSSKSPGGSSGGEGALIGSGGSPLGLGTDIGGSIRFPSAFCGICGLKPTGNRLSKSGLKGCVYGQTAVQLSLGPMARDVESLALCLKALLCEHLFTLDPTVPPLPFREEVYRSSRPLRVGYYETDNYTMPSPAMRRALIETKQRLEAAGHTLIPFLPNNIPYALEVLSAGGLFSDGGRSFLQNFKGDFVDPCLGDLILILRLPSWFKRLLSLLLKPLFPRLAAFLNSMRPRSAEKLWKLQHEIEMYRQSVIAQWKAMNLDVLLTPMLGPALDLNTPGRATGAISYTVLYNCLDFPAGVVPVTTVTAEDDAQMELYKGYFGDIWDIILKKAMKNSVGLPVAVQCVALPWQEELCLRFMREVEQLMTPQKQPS
Experiment: Determination of FAAH inhibitory activity in rat (rat brain membrane preparations, [3H]-anandamide hydrolysis)
Type: biochemical
Settings: for pIC50: read-out: FAAH Inhibition IC50
Description: Determination of FAAH Inhibitory Activity in Rat
The preparation of rat brain membranes preparations and the determination of FAAH inhibitory activity were carried out according to the Jonsson et al. method [Br. J. Pharmacol., 133, 1263 (2001)].
(1) Preparation of Rat Brain Membranes Preparations (FAAH Enzyme Solution)
The cerebrum was extracted from rats and was freeze-stored at −80° C. To the frozen cerebrum was added 4° C. enzyme homogenization buffer (20 mM HEPES-buffer pH 7.0, 1 mM MgCl2) and the mixture was homogenized using a homogenizer in ice and the homogenates were centrifuged (36,000×g for 20 minutes). After repeating operations of homogenization and centrifugation, the tissue pellets were re-suspended with 4° C. enzyme homogenization buffer. The re-suspensions were incubated at 37° C. for 15 minutes and were centrifuged (36,000×g for 20 minutes), and the resulting tissue membranes were then re-suspended with enzyme solution preparation buffer (50 mM Tris-HCl buffer pH 7.4, 1 mM EDTA, 3 mM MgCl2). The protein concentration in the resulting membrane preparations were determined according to a colorimetry method (BCA Protein Assay: Pierce Inc.) and the preparations were freeze-stored at −80° C. until used for assay.
(2) Screening of Substances for Inhibiting FAAH Activity
To the above membrane preparations (final concentration 100 μg/mL) were added a solution of test substances in DMSO (final concentration in DMSO 1%) and an assay buffer (for final preparation; 22 mM Tris-HCl (pH 7.6), 1.4 mM EDTA, 1.5% BSA, 0.6 mM MgCl2) and the resulting mixtures were preincubated at 37° C. for 10 minutes. Thereto was added a substrate solution (for final preparation; 2 nM [^3H]-Anandamide (American Radiolabeled Chemicals Inc.)+2 μM Anandamide (Sigma-Aldrich Co.)) (final assay volume of 200 μL) and the resulting mixtures were incubated at 37° C. for 10 minutes. Here in control experiment, DMSO was added instead of the solution of test substance in DMSO. Also in blank experiment, DMSO was added instead of the solution of test substance in DMSO and an enzyme solution preparation buffer was also added instead of the membrane preparations. After the incubation, thereto was added a 400 μL ice-cooled solution of chloroform and methanol (1:1 ratio by volume) and the resulting mixtures were stirred. An ethanolamine (ethanolamine-1-[^3H]) as a decomposed product was separated into an upper layer (water/methanol layer) by centrifugation (1,000×g for 10 minutes). The upper layer 200 μL was transferred into 96 well Deepwell Luma Plate-96 (PerkinElmer Inc.) and the radioactivity was measured by microplate scintillation counter (TopCount NXT™: […].). The substances showing a lower measured value compared to those of control were selected as the compound having a FAAH inhibitory activity.
(3) Determination of IC50 Value
The test substances were prepared such that the final concentration of the compounds is within the range of 0.1 nM to 1 μM and were then examined on the effect on FAAH activity according to the above-mentioned protocol.

[1] = at 100 nM, rat brain membrane preparations, read-out: FAAH Inhibition Inhibition Rate at 100 nM
[2] = rat brain membrane preparations
[3] = rat brain membrane preparations, 100 nM test substance, read-out: FAAH Inhibition, Inhibition Rate at 100 nM
[4] = rat brain membrane preparations, test substance 0.1 nM to 1 μM

Row | SMILES | inhibition at 0.1 µM [1] | pIC50 [2] | inhibition at 0.1 µM [3] | pIC50 [4] | inhibition at 0.1 µM (read-out: FAAH Inhibition, Inhibition Rate at 100 nM)
1 | CN(C)C(=O)n1c(=O)n(C)c2cnc(Cc3ccc(Cl)cc3)nc21 [compound 653] | 108% | 7.96 |  |  | 
2 | Cn1c(=O)n(C(=O)N2CCC2)c2cnc(Cc3ccc(Cl)cc3)nc21 [compound 378] |  |  | 80% | 7.51 | 
3 | CN(C)C(=O)n1c(=O)n(C)c2cnc(COc3cccc(C(F)(F)F)c3)nc21 [Example 422] |  |  | 88% | 7.66 | 
4 | CN(C)C(=O)n1c(=O)n(C)c2cnc(-c3ccc(Cl)cc3)nc21 [compound 329] |  |  | 95% | 7.92 | 
5 | COc1cccc(-c2ncc3c(n2)n(C)c(=O)n3C(=O)N2CCN(C3CCCC3)CC2)c1 [Example 98, 7-[(4-Cyclopentylpiperazin-1-yl)carbonyl]-2-(3-methoxyphenyl)-9-methyl-7,9-dihydro-8H-purine-8-one] |  |  | 93% | 7.40 | 
6 | COCc1ncc2c(n1)n(C)c(=O)n2C(=O)N1CC(c2ccc(OC(F)(F)F)cc2)C1 [Example 458, 2-(Methoxymethyl)-9-methyl-7-({3-[4-(trifluoromethoxy)phenyl]azetidin-1-yl}carbonyl)-7,9-dihydro-8H-purine-8-one] |  |  | 120% | 9.00 | 
7 | Cc1ncc2c(n1)n(C)c(=O)n2C(=O)N(C)CCc1ccc(Cl)cc1 [Example 157, N-[2-(4-Chlorophenyl)ethyl]-N,2,9-trimethyl-8-oxo-8,9-dihydro-7H-purine-7-carboxamide] |  |  | 103% | > 8.00 | 
8 | CN(C)C(=O)n1c(=O)n(C)c2cnc(CCc3ccc(F)c(C4CC4)c3)nc21 [compound 527] |  |  | 95% | 7.55 | 
9 | Cc1cccc(CCc2ncc3c(n2)n(C(=O)N2CCC2)c(=O)n3C)c1 [compound 560] |  |  | 91% | 7.85 | 
10 | Cc1ccc(N2CCN(C(=O)n3c(=O)n(C)c4nc(-c5ccccc5)ncc43)CC2)cc1 [Example 128, 9-Methyl-7-{[4-(4-methylphenyl)piperazin-1-yl]carbonyl}-2-phenyl-7,9-dihydro-8H-purine-8-one] |  |  | 99% | 8.15 | 
11 | CN(C)C(=O)n1c(=O)n(C)c2cnc(CCCC3CCCC3)nc21 [Example 617] | 93% | 8.22 |  |  | 
12 | CN(C)C(=O)n1c(=O)n(C)c2cnc(CCc3c(F)cccc3F)nc21 [compound 551] |  |  | 40% | 6.98 | 
13 | COc1cccc(-c2ncc3c(n2)n(C)c(=O)n3C(=O)N(C)CCc2ccc(F)cc2)c1 [Example 74, N-[2-(4-Fluorophenyl)ethyl]-2-(3-methoxyphenyl)-N,9-dimethyl-8-oxo-8,9-dihydro-7H-purine-7-carboxamide] |  |  |  | > 9.00 | 104%
14 | CN(C)C(=O)n1c(=O)n(C)c2cnc(-c3cccc(OCC(F)(F)F)c3)nc21 [Example 336] |  |  | 85% | 7.70 | 
15 | CCCOCc1ncc2c(n1)n(C)c(=O)n2C(=O)N1CC(c2ccccc2)C1 [compound 467] |  |  | 69% | 7.28 | 
16 | CCN(C)C(=O)n1c(=O)n(C)c2nc(Cc3ccc(F)cc3)ncc21 [Example 279, N-Ethyl-2-(4-fluorobenzyl)-N,9-dimethyl-8-oxo-8,9-dihydro-7H-purine-7-carboxamide] |  |  | 98% | 8.52 | 
17 | Cn1c(=O)n(C(=O)N2CCC2)c2nc(CCc3ccc(Cl)cc3)ncc21 [compound 575] |  |  | 102% | 8.00 | 

Row | SMILES | inhibition at 0.1 µM [1] | pIC50 [2] | inhibition at 0.1 µM [3] | pIC50 [4] | inhibition at 0.1 µM (read-out: FAAH Inhibition, Inhibition Rate at 100 nM)
18 | CCN(CC)C(=O)n1c(=O)n(C)c2nc(-c3ccccc3)ncc21 [Example 40] |  |  | 20% | < 7.00 | 
19 | Cn1c(=O)n(C(=O)N2CCCC2)c2nc(Cc3ccc(F)cc3F)ncc21 [Example 296, 2-(2,4-Difluorobenzyl)-7-methyl-9-(pyrrolidin-1-ylcarbonyl)-7,9-dihydro-8H-purine-8-one] |  |  | 92% | 7.35 | 
20 | CCCc1ccc(CCc2ncc3c(n2)n(C(=O)N2CCC2)c(=O)n3C)cc1 [compound 562] |  |  | 101% | 8.00 | 
21 | Cc1cc(C)cc(-c2ncc3c(n2)n(C)c(=O)n3C(=O)N2CCCC2)c1 [compound 197] |  |  | 69% | 7.15 | 
22 | CCCc1ncc2c(n1)n(C)c(=O)n2C(=O)N1CC(c2ccc(F)cc2)C1 [compound 624] | 97% | 7.74 |  |  | 
23 | Cn1c(=O)n(C(=O)N2CCCC2)c2cnc(-c3cc(C(F)(F)F)ccc3F)nc21 [compound 199] |  |  | 68% | 7.14 | 
24 | COCCc1ncc2c(n1)n(C)c(=O)n2C(=O)N1CC(c2ccc(C(F)(F)F)cc2)C1 [Example 388, 2-(2-methoxyethyl)-9-methyl-7-({3-[4-(trifluoromethyl)phenyl]azetidin-1-yl}carbonyl)-7,9-dihydro-8H-purine-8-one hydrochloric acid salt] |  |  | 100% | 8.30 | 
25 | COc1cncc(-c2ncc3c(n2)n(C)c(=O)n3C(=O)N2CCCC2)c1 [compound 208] |  |  | 106% | 8.00 | 
26 | CCOc1ccc(-c2ncc3c(n2)n(C)c(=O)n3C(=O)N2CCCC2)cc1 [compound 176] |  |  | 100% | 8.00 | 
27 | Cc1cccc(Cc2ncc3c(n2)n(C)c(=O)n3C(=O)N2CCCC2)c1 [Example 258, 9-Methyl-2-(3-methylbenzyl)-7-(pyrrolidin-1-ylcarbonyl)-7,9-dihydro-8H-purine-8-one] |  |  | 98% | 7.40 | 
28 | CN(C)C(=O)n1c(=O)n(C)c2cnc(-c3ccc(OC(F)(F)F)cc3)nc21 [compound 318] |  |  | 90% | 7.57 | 
29 | CCCn1c(=O)n(C(=O)N2CC(c3ccccc3F)C2)c2cnc(COC)nc21 [Example 661, 7-{[3-(2-Fluorophenyl)azetidin-1-yl]carbonyl}-2-(methoxymethyl)-9-propyl-7,9-dihydro-8H-purine-8-one] | 82% | 7.44 |  |  | 
30 | Cc1ccccc1OCc1ncc2c(n1)n(C(=O)N1CCC1)c(=O)n2C [Example 416] |  |  | 50% | 6.95 | 
31 | Cc1ccc(OCCCc2ncc3c(n2)n(C(=O)N(C)C)c(=O)n3C)cc1 [Example 396] |  |  | 52% | 7.11 | 
32 | CCN(C)C(=O)n1c(=O)n(C)c2nc(Cc3cccc(C)c3)ncc21 [Example 282, N-Ethyl-N,9-dimethyl-2-(3-methylbenzyl)-8-oxo-8,9-dihydro-7H-purine-7-carboxamide] |  |  | 97% | 8.00 | 
33 | CCN(C)C(=O)n1c(=O)n(C)c2nc(-c3cccc(OC)c3)ncc21 [Example 60, N-Ethyl-2-(3-methoxyphenyl)-N,9-dimethyl-8-oxo-8,9-dihydro-7H-purine-7-carboxamide] |  |  | 99% | 8.22 | 
